Results published in patent US20250032524A1, “BROAD SPECTRUM AMINOGLYCOSIDES AND USES THEREOF” (REVAGENIX, INC., priority 2022, published 2025).
Where two headings read alike, the source gives them in different places.

Assays:
E. coli = assay: MIC broth microdilution (CLSI); assay type: cell-based; conditions: Escherichia coli
In short: (§1)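 CLSI broth microdilution in cation-adjusted Mueller-Hinton broth, 2-fold compound dilutions, final inoculum 5×10^5 CFU/mL. Incubation in ambient air at 35° C for 18-24 h; MIC = lowest concentration preventing visible growth (OD600 <0.05), with QC strains and neomycin as reference.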

K. pneumoniae = assay: MIC broth microdilution (CLSI); assay type: cell-based; conditions: for MIC: Klebsiella pneumoniae, strain AKPN1246, MDR Clinical isolate (CDC CRE panel), CDC AR Bank 0139
In short: as §1

[1] = read-out: Activity (MIC), strain AECO1225, MDR Clinical isolate (CDC CRE panel), CDC AR Bank 0118
[2] = read-out: Activity (MIC), strain AECO1226, MDR Clinical isolate (CDC CRE panel), CDC AR Bank 0119
[3] = read-out: Activity (MIC), strain AECO1227, MDR Clinical isolate (CDC CRE panel), CDC AR Bank 0128
[4] = read-out: Activity (MIC), strain NECO0003, ΔtolC
[5] = read-out: Activity (MIC), strain NECO0245, ArmA
[6] = strain NECO0001, WT QC, read-out: Activity (MIC)
[7] = strain NECO0002, WT, read-out: Activity (MIC)
[8] = strain NECO0243, empty vector, read-out: Activity (MIC)
[9] = strain NECO0244, AAC(6')-Ib, read-out: Activity (MIC)
[10] = strain NECO0289, APH(3')-Ia, read-out: Activity (MIC)
[11] = strain NECO0302, AAC(3)-IIa, read-out: Activity (MIC)
[12] = strain NECO0350, AAC(2')-I, read-out: Activity (MIC)
[13] = strain NECO0359, ANT(4')-Ia, read-out: Activity (MIC)
[14] = strain AKPN1250, MDR Clinical isolate (CDC CRE panel), CDC AR Bank 0143
[15] = strain AKPN1253, MDR Clinical isolate (CDC CRE panel), CDC AR Bank 0148
[16] = strain AKPN1255, MDR Clinical isolate (CDC CRE panel), CDC AR Bank 0153

C[C@H](N)[C@@H]1CC[C@@H](N)[C@@H](O[C@@H]2[C@@H](N)[C@H](O)[C@@H](NC(=O)[C@@H](O)[C@H](F)CN)[C@H](O)[C@H]2O[C@@H]2O[C@H](CO)[C@@H](O[C@H]3O[C@@H](CN)[C@@H](O)[C@H](O)[C@H]3N)[C@H]2O)O1 [Compound 3, (2R,3R)-4-amino-N-((1R,2S,3S,4R,5R,6S)-3-amino-4-(((2R,3R,6S)-3-amino-6-((S)-1-aminoethyl)tetrahydro-2H-pyran-2-yl)oxy)-5-(((2S,3R,4S,5R)-4-(((2R,3R,4R,5S,6S)-3-amino-6-(aminomethyl)-4,5-dihydroxytetrahydro-2H-pyran-2-yl)oxy)-3-hydroxy-5-(hydroxymethyl)tetrahydrofuran-2-yl)oxy)-2,6-dihydroxycyclohexyl)-3-fluoro-2-hydroxybutanamide]
MIC (E. coli; [1]): < 16 µg/mL | MIC (E. coli; [2]): < 16 µg/mL | MIC (E. coli; [3]): < 16 µg/mL | MIC (E. coli; [4]): < 16 µg/mL | MIC (E. coli; [5]): < 16 µg/mL | MIC (E. coli; [6]): < 16 µg/mL | MIC (E. coli; [7]): < 16 µg/mL | MIC (E. coli; [8]): < 16 µg/mL | MIC (E. coli; [9]): < 16 µg/mL | MIC (E. coli; [10]): < 16 µg/mL | MIC (E. coli; [11]): < 16 µg/mL | MIC (E. coli; [12]): < 16 µg/mL | MIC (E. coli; [13]): < 16 µg/mL | MIC (K. pneumoniae): < 16 µg/mL | Activity (MIC) (K. pneumoniae; [14]): + (MIC threshold for positive activity (+) is ≤16 μg/mL) | Activity (MIC) (K. pneumoniae; [15]): + (MIC threshold for positive activity (+) is ≤16 μg/mL) | Activity (MIC) (K. pneumoniae; [16]): + (MIC threshold for positive activity (+) is ≤16 μg/mL)

NC[C@@H]1CC[C@@H](N)[C@@H](O[C@@H]2[C@@H](N)[C@H](O)[C@@H](NC(=O)[C@@H](O)[C@H](F)CN)[C@H](O)[C@H]2O[C@@H]2O[C@H](CO)[C@@H](O[C@H]3O[C@@H](CN)[C@@H](O)[C@H](O)[C@H]3N)[C@H]2O)O1 [Compound 1, (2R,3R)-4-amino-N-((1R,2S,3S,4R,5R,6S)-3-amino-5-(((2S,3R,4S,5R)-4-(((2R,3R,4R,5S,6S)-3-amino-6-(aminomethyl)-4,5-dihydroxytetrahydro-2H-pyran-2-yl)oxy)-3-hydroxy-5-(hydroxymethyl)tetrahydrofuran-2-yl)oxy)-4-(((2R,3R,6S)-3-amino-6-(aminomethyl)tetrahydro-2H-pyran-2-yl)oxy)-2,6-dihydroxycyclohexyl)-3-fluoro-2-hydroxybutanamide]
MIC (E. coli; [1]): < 16 µg/mL | MIC (E. coli; [2]): < 16 µg/mL | MIC (E. coli; [3]): < 16 µg/mL | MIC (E. coli; [4]): < 16 µg/mL | MIC (E. coli; [5]): < 16 µg/mL | MIC (E. coli; [6]): < 16 µg/mL | MIC (E. coli; [7]): < 16 µg/mL | MIC (E. coli; [8]): < 16 µg/mL | MIC (E. coli; [9]): < 16 µg/mL | MIC (E. coli; [10]): < 16 µg/mL | MIC (E. coli; [11]): < 16 µg/mL | MIC (E. coli; [12]): < 16 µg/mL | MIC (E. coli; [13]): < 16 µg/mL | MIC (K. pneumoniae): < 16 µg/mL | Activity (MIC) (K. pneumoniae; [14]): + (MIC threshold for positive activity (+) is ≤16 μg/mL) | Activity (MIC) (K. pneumoniae; [15]): + (MIC threshold for positive activity (+) is ≤16 μg/mL) | Activity (MIC) (K. pneumoniae; [16]): + (MIC threshold for positive activity (+) is ≤16 μg/mL)

NCC[C@H](O)C(=O)N[C@@H]1[C@@H](O)[C@H](N)[C@@H](O[C@H]2O[C@H](CN)CC[C@H]2N)[C@H](O[C@@H]2O[C@H](CO)[C@@H](O[C@H]3O[C@@H](CN)[C@@H](O)[C@H](O)[C@H]3N)[C@H]2O)[C@H]1O [Compound 2, (S)-4-amino-N-((1R,2S,3S,4R,5R,6S)-3-amino-5-(((2S,3R,4S,5R)-4-(((2R,3R,4R,5S,6S)-3-amino-6-(aminomethyl)-4,5-dihydroxytetrahydro-2H-pyran-2-yl)oxy)-3-hydroxy-5-(hydroxymethyl)tetrahydrofuran-2-yl)oxy)-4-(((2R,3R,6S)-3-amino-6-(aminomethyl)tetrahydro-2H-pyran-2-yl)oxy)-2,6-dihydroxycyclohexyl)-2-hydroxybutanamide]
MIC (E. coli; [1]): < 16 µg/mL | MIC (E. coli; [2]): < 16 µg/mL | MIC (E. coli; [3]): < 16 µg/mL | MIC (E. coli; [4]): < 16 µg/mL | MIC (E. coli; [5]): < 16 µg/mL | MIC (E. coli; [6]): < 16 µg/mL | MIC (E. coli; [7]): < 16 µg/mL | MIC (E. coli; [8]): < 16 µg/mL | MIC (E. coli; [9]): < 16 µg/mL | MIC (E. coli; [10]): < 16 µg/mL | MIC (E. coli; [11]): < 16 µg/mL | MIC (E. coli; [12]): < 16 µg/mL | MIC (E. coli; [13]): < 16 µg/mL | MIC (K. pneumoniae): < 16 µg/mL | Activity (MIC) (K. pneumoniae; [14]): + (MIC threshold for positive activity (+) is ≤16 μg/mL) | Activity (MIC) (K. pneumoniae; [15]): + (MIC threshold for positive activity (+) is ≤16 μg/mL) | Activity (MIC) (K. pneumoniae; [16]): + (MIC threshold for positive activity (+) is ≤16 μg/mL)

C[C@H](N)[C@@H]1CC[C@@H](N)[C@@H](O[C@@H]2[C@@H](N)[C@H](O)[C@@H](NC(=O)[C@@H](O)CCN)[C@H](O)[C@H]2O[C@@H]2O[C@H](CO)[C@@H](O[C@H]3O[C@@H](CN)[C@@H](O)[C@H](O)[C@H]3N)[C@H]2O)O1 [Compound 6, (S)-4-Amino-N-((1R,2S,3S,4R,5R,6S)-3-Amino-4-(((2R,3R,6S)-3-Amino-6-((S)-1-Aminoethyl)Tetrahydro-2H-Pyran-2-Yl)Oxy)-5-(((2S,3R,4S,5R)-4-(((2R,3R,4R,5S,6S)-3-Amino-6-(Aminomethyl)-4,5-Dihydroxytetrahydro-2H-Pyran-2-Yl)Oxy)-3-Hydroxy-5-(Hydroxymethyl)Tetrahydrofuran-2-Yl)Oxy)-2,6-Dihydroxycyclohexyl)-2-Hydroxybutanamide]
MIC (E. coli; [1]): < 16 µg/mL | MIC (E. coli; [2]): < 16 µg/mL | MIC (E. coli; [3]): < 16 µg/mL | MIC (E. coli; [4]): < 16 µg/mL | MIC (E. coli; [5]): < 16 µg/mL | MIC (E. coli; [6]): < 16 µg/mL | MIC (E. coli; [7]): < 16 µg/mL | MIC (E. coli; [8]): < 16 µg/mL | MIC (E. coli; [9]): < 16 µg/mL | MIC (E. coli; [10]): < 16 µg/mL | MIC (E. coli; [11]): < 16 µg/mL | MIC (E. coli; [12]): < 16 µg/mL | MIC (E. coli; [13]): < 16 µg/mL | MIC (K. pneumoniae): < 16 µg/mL | Activity (MIC) (K. pneumoniae; [14]): + (MIC threshold for positive activity (+) is ≤16 μg/mL) | Activity (MIC) (K. pneumoniae; [15]): + (MIC threshold for positive activity (+) is ≤16 μg/mL) | Activity (MIC) (K. pneumoniae; [16]): + (MIC threshold for positive activity (+) is ≤16 μg/mL)
